According to BindingDB's records for doi:10.1021/jm801211c (Intervet Innovation, 2009):
pEC50: −log10 of the molar value.

Target: Mu-type opioid receptor (Homo sapiens, UniProt P35372)
Experiment: Mu Opioid Receptor Binding Assay and Antagonist Functionality Assay
Conditions: pH 7.4; 22 °C
Experimental: In the binding assays, the results were expressed as percent inhibition of the control radioligand specific binding. The IC50 values (concentration causing a half maximal inhibition of control specific binding) were determined by non-linear regression analysis of the competition curves using Hill equation curve fitting. The inhibition constants (Ki) were calculated from the Cheng Prusoff equation. EC50/IC50 measures the antagonist activities on mu-agonist triggered luminescence in AequoScreen cells.

Chain of Mu-type opioid receptor (P35372 whole entry): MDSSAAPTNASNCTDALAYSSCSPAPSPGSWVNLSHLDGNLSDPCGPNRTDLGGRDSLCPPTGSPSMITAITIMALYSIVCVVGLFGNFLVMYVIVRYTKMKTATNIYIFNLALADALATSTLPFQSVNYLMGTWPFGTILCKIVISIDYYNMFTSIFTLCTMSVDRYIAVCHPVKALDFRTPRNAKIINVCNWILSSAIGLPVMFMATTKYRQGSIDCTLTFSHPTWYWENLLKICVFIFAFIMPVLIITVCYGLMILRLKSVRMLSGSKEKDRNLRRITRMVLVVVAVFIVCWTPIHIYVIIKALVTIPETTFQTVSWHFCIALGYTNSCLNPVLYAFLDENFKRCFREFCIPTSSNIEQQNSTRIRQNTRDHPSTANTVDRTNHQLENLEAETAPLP

SMILES | pEC50
CC(C)N[C@@H]1CCn2c(=O)[nH]c3cccc(c32)[C@H]1O [(9R,10R)-9-hydroxy-10-(propan-2-ylamino)-1,3-diazatricyclo[6.4.1.0^{4,13}]trideca-4(13),5,7-trien-2-one] | < 3.00
CC(C)N[C@H]1CCn2c(=O)[nH]c3cccc(c32)[C@@H]1O [(9S,10S)-9-hydroxy-10-(propan-2-ylamino)-1,3-diazatricyclo[6.4.1.0^{4,13}]trideca-4(13),5,7-trien-2-one] | 3.85
